Details of data set [1]: method as in earlier work. As to conditions: ref Roy Chowdhury U, Viker KB, Stoltz KL, et al. J Med Chem. 2016;59(13):6221-31; cited from earlier work.
The nature of data set [2]: Plasma pharmacokinetics after single intravenous injection of CKLP1 (LC-MS/MS). It counts as in vivo, Dutch-belted pigmented rabbits. The protocol: (§1) LC-MS/MS analysis of all fluids were performed using a Waters (Milford, MA) Acquity UPLC BEH C18 column (1.7 μm, 2.1 x 50 mm) with an Agilent EC-C18 pre-column (2.7 μm, 2.1 x 5 mm) and a gradient elution program containing ultra-pure water and acetonitrile with 2.5 mM ammonium formate, at a flow rate of 0.2 ml/min. Flavopiridol was used as an internal standard. The column and auto-sampler temperatures were maintained at 40°C and 4°C, respectively. Source parameters were capillary voltage, 2.6 kV; source temperature, 150°C; desolvation temperature, 500°C; cone gas flow, 150 L/h; and desolvation gas flow, 800 L/h. The cone voltages and collision energies for CKLP1, levcromakalim and flavopiridol were determined by MassLynx-Intellistart software, v4.1, and were 32, 34 and 72 V (cone) and 20, 14 and 30 eV (collision), respectively. The retention times were 4.5 minutes for CKLP1, 5.9 minutes for levcromakalim and 5.7 minutes for flavopiridol.
(§2) To validate accurate measurement of CKLP1 and levcromakalim, known concentrations of CKLP1 (5, 10, 25, 50, 100, 250, 500 ng/ml) and levcromakalim (1, 5, 10, 25, 50, 100, 250 ng/ml) were added to human plasma (obtained from the Mayo Clinic Division of Transfusion Medicine under an Institutional Review Board approved protocol) to make calibration curves. Quality control was determined for each run by using known quantities of CKLP1 and levcromakalim to verify that the instrument recorded values consistent with the established standard curve. The effect of carryover was evaluated by injecting blank samples before and after running the standard samples for calibration curves. Unknown samples with signal to noise ratios >10 were recorded as acceptable concentrations. Samples with signal to noise ratios <10 were reported as not detectable (ND). Controls consisted of a double blank (without analytes and internal standard) and a single blank (only internal standard). The linearity of the calibration curves was determined by plotting the ratios of analytes to internal standard peak areas. The curve was fitted by least squares regression with a 1/x weighting for both CKLP1 and levcromakalim. Data was collected from 3–6.4 minutes for CKLP1 and 4–8 minutes for both levcromakalim and flavopiridol. Waters MassLynx Intellistart software v4.1 was used for analysis.
(§3) All experiments with animals were pre-approved by the Institutional Animal Care and Use Committee of the Mayo Clinic, Rochester, MN and adhered to the recommendations in the Guide for the Care and use of Laboratory Animals of the National Institutes of Health, and the tenets of the ARVO Statement for the Use of Animals in Vision Research. Female Dutch-belted pigmented rabbits (age 7 months) were obtained from Covance Research Products, Inc. (Denver, PA). Rabbits were housed in pairs and kept in a climate controlled room with 12 h light and dark cycles. Animals had unrestrained access to water and standard rabbit food pellets at all times. Upon receipt, animals were acclimated for at least 5 days before initiation of the experiment. IOP was measured with a handheld rebound tonometer (Icare Tonovet, Colonial Medical Supply, Franconia, NH, USA) in conscious and minimally restrained, non-anesthetized rabbits as previously described. Briefly, daily IOP was calculated from the average of 3 independent IOP measurements at 3 different time points each day. These time points corresponded to 1 h, 4 h and 23 h post treatment on any given day. Rabbits that needed to be handled for IOP were subjected to sham IOP measurements for two days prior to initiation of experiment. Rabbits (n = 3) were injected intravenously through the right ear vein with CKLP1 as a bolus dose equal to 0.25 mg/kg body weight. Additional rabbits were treated topically through instillation of 50 μl eye drops of a 10 mM (4.1 mg/ml) solution of CKLP1 in sterile PBS. […]

A short description of data set [3]: Plasma pharmacokinetics after topical eye drops of CKLP1, days 1, 4 and 8 (LC-MS/MS). The data set is classed as in vivo, Dutch-belted pigmented rabbits. As to conditions: for AUC(0-t) / Cmax / half-life / Tmax: female, Dutch-belted pigmented, rabbit, topical or ocular; for AUC(0-t) / Cmax / half-life / Tmax / Clast / Tlast: plasma; for Cmax: read-out: Cmax; for half-life: read-out: Half-life (converted); for Tmax: read-out: Tmax (converted). The procedure:
as §1, §2, §3

Data set [4] is described as follows: Concentration in aqueous and vitreous humor after topical CKLP1 for 1, 4 or 8 days (LC-MS/MS). The data set is classed as in vivo, Dutch-belted pigmented rabbits. As to conditions: topical CKLP1 both eyes, days 1, 4 and 8, collected after the 24 h blood sample; for concentration at 24 h: female, Dutch-belted pigmented, rabbit. The protocol: as §1, §2, §3
Data set [5] is described as follows: Tissue and fluid distribution after 90 days of daily topical CKLP1 (LC-MS/MS). It counts as in vivo, Dutch-belted pigmented rabbits. The conditions noted are these: topical eye drops 10 mM CKLP1, 90 consecutive days. The procedure:
as §1, §2, §3

The mark [6] stands for this setting: rabbit, intravenous 0.25 mg/kg CKLP1.
Setting [7] is: eye drops 10 mM CKLP1 both eyes once daily, Day 4.
[8] abbreviates: eye drops 10 mM CKLP1 both eyes once daily, Day 8.
The mark [9] stands for this setting: eye drops 10 mM CKLP1 both eyes, Day 1.

The AUC(0-t) is exposure summed from dosing to a finite time, without extrapolation to infinity. Higher therefore signals more exposure. A word on the Cmax: it is the peak of the concentration-time curve. The half-life is how long it takes for the measured level to halve. One may read the Tmax as the time at which the peak concentration occurs.

“And” between values parts separate entries of the source, which are not always exact repeats. Identical values can stand only once. Like-named read-outs stand apart in the source and are kept apart here.

With `CC1(C)Oc2ccc(C#N)cc2C(N2CCCC2=O)C1O` (stereo not drawn) [Cromakalim, cromakalim, reference compound], the Solubility in water entry in data set [1] was “insoluble in water”.
For the compound `CC1(C)Oc2ccc(C#N)cc2[C@@H](N2CCCC2=O)[C@@H]1O` [Levcromakalim, levcromakalim, reference compound], in data set [2] (female, Dutch-belted pigmented, rabbit, intravenous 0.25 mg/kg CKLP1), the AUC(0-t) worked out at 120 ± 93.7 ng·h/mL. Besides, the peak concentration (Cmax) in data set [2] (female, Dutch-belted pigmented, rabbit, intravenous 0.25 mg/kg CKLP1, read-out: Cmax) stood at 10.6 ± 1.2 ng/mL. Moreover, the half-life in data set [2] (female, Dutch-belted pigmented, rabbit, intravenous 0.25 mg/kg CKLP1, read-out: Half-life) is 1.42 ± 0.617 h. Further, in data set [2] (female, Dutch-belted pigmented, rabbit, intravenous 0.25 mg/kg CKLP1, read-out: Tmax (converted)), the Tmax was 1.02 h. The “Peak concentration (Cmax) of levcromakalim relative to CKLP1” value in data set [2] (intravenous CKLP1, fold less than CKLP1) is approximately 200 fold. In data set [2] (setting [6]), this compound came in with a Clast of 4.4 ± 4.3 ng/mL and a Tlast of 16.0 ± 8.9 h. Besides, in data set [3] (setting [7]), the AUC(0-t) came out at 10.9 ± 6 ng·h/mL, the Cmax amounted to 0.9 ± 0.7 ng/mL, the half-life is 25.8 ± 13.7 h and the time to peak (Tmax) was 3.33 h. In data set [3] (setting [7]), the Clast was determined as 0.3 ± 0.1 ng/mL and the Tlast was determined as 24.0 ± 0.0 h. Moreover, in data set [3] (setting [8]), the area under the curve AUC(0-t) was 10.2 ± 0.3 ng·h/mL, the Cmax came to 0.6 ± 0.3 ng/mL, the half-life is 12.2 ± 5.6 h and the Tmax was 2.33 h. Also, in data set [3] (setting [8]), the Clast is 0.2 ± 0.1 ng/mL and the Tlast was determined as 18.7 ± 9.2 h. In addition, in data set [3] (setting [9]), the AUC(0-t) was 6.1 ± 2 ng·h/mL, the Cmax is 0.4 ± 0.1 ng/mL, the half-life was 13.2 ± 2.6 h and the Tmax is 6.67 h. In data set [3] (setting [9]), this compound showed a Clast of 0.1 ± 0.1 ng/mL and a Tlast of 24.0 ± 0.0 h. The “Amount in plasma after topical CKLP1” value in data set [3] (topical 10 mM CKLP1 in the eye) is “trace amounts”. In addition, in data set [4] (aqueous humor, read-out: Concentration in aqueous humor), the concentration at 24 h is less than 0.3 ng/mL. Moreover, the concentration at 24 h in data set [4] (vitreous humor, read-out: Concentration in vitreous humor) was less than 0.3 ng/mL. In data set [4], the “Concentration in aqueous humor” value is “low levels” and the “Concentration in vitreous humor” value was “low levels”. In data set [5], the “Concentration in Brain” value was “not detected”; the “Concentration in Heart” value is listed as “not detected”; the “Concentration in Liver” value is 5.9 ± 4.3 (n = 4/6) ng/g; the “Concentration in Lung” value is 1.5 ± 0.0 ng/g and 1.5 ± 0.0 (n = 6/6) ng/g. In addition, in data set [5], the “Concentration in Muscle” value is given as “not detected”, the “Concentration in Plasma” value is listed as “no detectable levels”, the “Concentration in aqueous humor” value is listed as 0.2 ± 0.1 (n = 4/6) ng/ml and the “Concentration in vitreous humor” value is 0.1 ± 0.0 (n = 3/6) ng/ml. In data set [5] (listed as levcromakalim), the “Concentration in Liver” value is listed as 5.9 ± 4.3 ng/g, the “Concentration in aqueous humor” value came out at 0.2 ± 0.1 ng/mL and the “Concentration in vitreous humor” value is 0.1 ± 0.0 ng/mL.

The values above are taken from paper PMC7162492, “Pharmacological and pharmacokinetic profile of the novel ocular hypotensive prodrug CKLP1 in Dutch-belted pigmented rabbits” (PLoS ONE, 2020).
